This is an account of results in US20230303561A1, “PYRIMIDINONE DERIVATIVE, PREPARATION METHOD THEREOF AND USE THEREOF IN RESISTING MYCOBACTERIUM TUBERCULOSIS INFECTION” (INSTITUTE OF MEDICINAL BIOTECHNOLOGY, CHINESE ACADEMY OF …, priority 2020, published 2023).

Values after ≈ are worked out from the molar mass of the structure shown. Bounds are passed on as bounds.

This assay concerns MTB H37Rv. The experiment in a line: Bacteriostasis experiment: MIC in 96-well plate, two-fold dilution method. The class given is cell-based, Mycobacterium tuberculosis. As to conditions: for MIC: Mycobacterium tuberculosis, ATCC 27294 / H37Rv, 240 h, read-out: Inhibitory activity against Mycobacterium tuberculosis, MIC, MTB H37Rv; for anti-mycobacterium tuberculosis MIC compared with the positive control drug INH: MTB H37Rv, statement on Table 1 data.

The mark [1] stands for this setting: MTB H37Rv (ATCC 27294), 7H9 medium, 37° C., about 10 days.

For orientation: MIC means the lowest concentration that inhibits growth of the organism.

`CCCOc1ccc(C2CC(=O)Nc3nc(SC)[nH]c(=O)c32)cc1` (stereo not shown) [LSL-7-36, 2-methylmercapto-5-(4-propoxyphenyl)-5,6-dihydropyrido[2,3-d]pyrimidin-4,7(3H,8H)-dione]: the MIC under setting [1] is 32 µg/mL (≈ 92.6 µM). For the molecule `CCCSc1nc2c(c(=O)[nH]1)C(c1ccc(OC)c(O)c1)CC(=O)N2` (stereo not shown) [LSL-7-38, 2-propylmercapto-5-(3-hydroxy-4-methoxyphenyl)-5,6-dihydropyrido[2,3-d]pyrimidin-4,7(3H,8H)-dione], the MIC under setting [1] turned out to be 1 µg/mL (≈ 2.77 µM). On the same count and under the same terms, in the case of `COc1ccc(C2CC(=O)Nc3nc(SC)[nH]c(=O)c32)cc1O` (stereo not shown) [LSL-7-39, 2-methylmercapto-5-(3-hydroxy-4-methoxyphenyl)-5,6-dihydropyrido[2,3-d]pyrimidin-4,7(3H,8H)-dione] it was 16 µg/mL (≈ 48 µM); in that of `CCCSc1nc2c(c(=O)[nH]1)C(c1ccc(O)c(O)c1)CC(=O)N2` (stereo not shown) [LSL-7-42, 2-propylmercapto-5-(3,4-dihydroxyphenyl)-5,6-dihydropyrido[2,3-d]pyrimidin-4,7(3H,8H)-dione], 32 µg/mL (≈ 92.1 µM); in that of `COc1cc(C2CC(=O)Nc3nc(SC)[nH]c(=O)c32)cc(OC)c1OC` (stereo not shown) [LSL-7-43, 2-methylmercapto-5-(3,4,5-trimethoxyphenyl)-5,6-dihydropyrido[2,3-d]pyrimidin-4,7(3H,8H)-dione], greater than 64 µg/mL. Same read-out and setting: the figure for `CCCSc1nc2c(c(=O)[nH]1)C(c1cc(OC)c(OC)c(OC)c1)CC(=O)N2` (stereo not shown) [LSL-7-44, 2-propylmercapto-5-(3,4,5-trimethoxyphenyl)-5,6-dihydropyrido[2,3-d]pyrimidin-4,7(3H,8H)-dione] is 16 µg/mL (≈ 39.5 µM); for `CCCSc1nc2c(c(=O)[nH]1)C(c1ccc(OC)c(OC)c1)CC(=O)N2` (stereo not shown) [LSL-7-46, 2-propylmercapto-5-(3,4-dimethoxyphenyl)-5,6-dihydropyrido[2,3-d]pyrimidin-4,7(3H,8H)-dione] it is 8 µg/mL (≈ 21.3 µM); for `CCCSc1nc2c(c(=O)[nH]1)C(c1ccc(Cl)c([N+](=O)[O-])c1)CC(=O)N2` (stereo not shown) [LSL-7-48, 2-propylmercapto-5-(3-nitro-4-chlorophenyl)-5,6-dihydropyrido[2,3-d]pyrimidin-4,7(3H,8H)-dione] it is 2 µg/mL (≈ 5.07 µM).

Regarding `CSc1nc2c(c(=O)[nH]1)C(c1ccc([N+](=O)[O-])cc1)CC(=O)N2` (stereo not shown) [LSL-7-49, 2-methylmercapto-5-(4-nitrophenyl)-5,6-dihydropyrido[2,3-d]pyrimidin-4,7(3H,8H)-dione], the MIC under setting [1] came out at 64 µg/mL (≈ 193 µM). On to `CCCSc1nc2c(c(=O)[nH]1)C(c1ccc([N+](=O)[O-])cc1)CC(=O)N2` (stereo not shown) [LSL-7-50, 2-propylmercapto-5-(4-nitrophenyl)-5,6-dihydropyrido[2,3-d]pyrimidin-4,7(3H,8H)-dione], for which, under setting [1], the MIC worked out at 64 µg/mL (≈ 178 µM). For the molecule `COc1ccc(C2CC(=O)Nc3nc(SC)[nH]c(=O)c32)c(O)c1` (stereo not shown) [LSL-9-01, 2-methylmercapto-5-(2-hydroxy-4-methoxyphenyl)-5,6-dihydropyrido[2,3-d]pyrimidin-4,7(3H,8H)-dione], the MIC under setting [1] came to 8 µg/mL (≈ 24 µM). `CCCSc1nc2c(c(=O)[nH]1)C(c1ccc(OC)cc1O)CC(=O)N2` (stereo not shown) [LSL-9-02, 2-propylmercapto-5-(2-hydroxy-4-methoxyphenyl)-5,6-dihydropyrido[2,3-d]pyrimidin-4,7(3H,8H)-dione]: the “anti-mycobacterium tuberculosis MIC compared with the positive control drug INH” value is given as “equivalent to that of the positive control drug INH”. Besides, under setting [1], the MIC came to 0.5 µg/mL (≈ 1.38 µM). Regarding `CSc1nc2c(c(=O)[nH]1)C(c1cccc([N+](=O)[O-])c1)CC(=O)N2` (stereo not shown) [LSL-9-09, 2-methylmercapto-5-(3-nitrophenyl)-5,6-dihydropyrido[2,3-d]pyrimidin-4,7(3H,8H)-dione], under setting [1], the “Inhibitory activity against Mycobacterium tuberculosis, MIC, MTB H37Rv” value worked out at 64 µg/mL. As to `CCCSc1nc2c(c(=O)[nH]1)C(c1cccc([N+](=O)[O-])c1)CC(=O)N2` (stereo not shown) [LSL-9-10, 2-propylmercapto-5-(3-nitrophenyl)-5,6-dihydropyrido[2,3-d]pyrimidin-4,7(3H,8H)-dione], the MIC under setting [1] came out at 4 µg/mL (≈ 11.1 µM). The same measure, in the same setting: the figure for `C=CCSc1nc2c(c(=O)[nH]1)C(c1ccc(OC)c(O)c1)CC(=O)N2` (stereo not shown) [LSL-9-15, 2-allylmercapto-5-(3-hydroxy-4-methoxyphenyl)-5,6-dihydropyrido[2,3-d]pyrimidin-4,7(3H,8H)-dione] is 2 µg/mL (≈ 5.56 µM); for `C=CCSc1nc2c(c(=O)[nH]1)C(c1ccc(OC)c(OC)c1)CC(=O)N2` (stereo not shown) [LSL-9-17, 2-allylmercapto-5-(3,4-dimethoxyphenyl)-5,6-dihydropyrido[2,3-d]pyrimidin-4,7(3H,8H)-dione] it is 8 µg/mL (≈ 21.4 µM). Same read-out and setting: the figure for `CCCSc1nc2c(c(=O)[nH]1)C(c1ccc(I)cc1)CC(=O)N2` (stereo not shown) [LSL-9-19, 2-propylmercapto-5-(4-iodophenyl)-5,6-dihydropyrido[2,3-d]pyrimidin-4,7(3H,8H)-dione] is greater than 64 µg/mL.

As for `CCCSc1nc2c(c(=O)[nH]1)C(c1ccc(OC)c(O)c1O)CC(=O)N2` (stereo not shown) [LSL-9-23, 2-propylmercapto-5-(2,3-dihydroxy-4-methoxyphenyl)-5,6-dihydropyrido[2,3-d]pyrimidin-4,7(3H,8H)-dione], under setting [1], the MIC was determined as 64 µg/mL (≈ 170 µM).

`CCCOc1ccc(C2CC(=O)Nc3nc(SCCC)[nH]c(=O)c32)cc1O` (stereo not shown) [LSL-9-25, 2-propylmercapto-5-(3-hydroxy-4-propoxyphenyl)-5,6-dihydropyrido[2,3-d]pyrimidin-4,7(3H,8H)-dione]: the MIC under setting [1] came out at 4 µg/mL (≈ 10.3 µM). The same measure, in the same setting: in the case of `CCCSc1nc2c(c(=O)[nH]1)C(c1ccc(Br)cc1)CC(=O)N2` (stereo not shown) [LSL-9-26, 2-propylmercapto-5-(4-bromophenyl)-5,6-dihydropyrido[2,3-d]pyrimidin-4,7(3H,8H)-dione] it was 2 µg/mL (≈ 5.07 µM). The same measure, in the same setting: in the case of `CCCSc1nc2c(c(=O)[nH]1)C(c1ccc(F)cc1)CC(=O)N2` (stereo not shown) [LSL-9-27, 2-propylmercapto-5-(4-fluorophenyl)-5,6-dihydropyrido[2,3-d]pyrimidin-4,7(3H,8H)-dione] it was greater than 64 µg/mL. Take `CCCOc1ccc(C2CC(=O)Nc3nc(SCCC)[nH]c(=O)c32)c(O)c1` (stereo not shown) [LSL-9-29, 2-propylmercapto-5-(2-hydroxy-4-propoxyphenyl)-5,6-dihydropyrido[2,3-d]pyrimidin-4,7(3H,8H)-dione]: the “anti-mycobacterium tuberculosis MIC compared with the positive control drug INH” value is “equivalent to that of the positive control drug INH”. In addition, the MIC under setting [1] stood at 0.5 µg/mL (≈ 1.28 µM). For `CCCSc1nc2c(c(=O)[nH]1)C(c1ccc(OCc3ccccc3)cc1)CC(=O)N2` (stereo not shown) [LSL-9-31, 2-propylmercapto-5-(4-benzyloxyphenyl)-5,6-dihydropyrido[2,3-d]pyrimidin-4,7(3H,8H)-dione], under setting [1], the MIC came out at 16 µg/mL (≈ 38 µM). On the same count and under the same terms, the figure for `CCCSc1nc2c(c(=O)[nH]1)C(c1ccc(Oc3ccccc3)cc1)CC(=O)N2` (stereo not shown) [LSL-9-32, 2-propylmercapto-5-(4-phenoxyphenyl)-5,6-dihydropyrido[2,3-d]pyrimidin-4,7(3H,8H)-dione] is greater than 64 µg/mL; for `CCCSc1nc2c(c(=O)[nH]1)C(c1cc(O)c(O)c(O)c1)CC(=O)N2` (stereo not shown) [LSL-9-33, 2-propylmercapto-5-(3,4,5-trihydroxyphenyl)-5,6-dihydropyrido[2,3-d]pyrimidin-4,7(3H,8H)-dione] it is 64 µg/mL (≈ 176 µM). On to `CCCSc1nc2c(c(=O)[nH]1)C(c1ccc(OC(F)(F)F)cc1)CC(=O)N2` (stereo not shown) [LSL-9-35, 2-propylmercapto-5-(4-trifluoromethoxyphenyl)-5,6-dihydropyrido[2,3-d]pyrimidin-4,7(3H,8H)-dione], for which the MIC under setting [1] worked out at 64 µg/mL (≈ 160 µM). Regarding `CCCSc1nc2c(c(=O)[nH]1)C(c1ccc3ncccc3c1)CC(=O)N2` (stereo not shown) [LSL-9-36, 2-propylmercapto-5-(quinolin-6-yl)-5,6-dihydropyrido[2,3-d]pyrimidin-4,7(3H,8H)-dione], the “anti-mycobacterium tuberculosis MIC compared with the positive control drug INH” value is given as “equivalent to that of the positive control drug INH”. Besides, the MIC under setting [1] is 0.125 µg/mL (≈ 0.341 µM). With `CCCSc1nc2c(c(=O)[nH]1)C(c1ccc(C)cc1)CC(=O)N2` (stereo not shown) [LSL-9-37, 2-propylmercapto-5-(4-methylphenyl)-5,6-dihydropyrido[2,3-d]pyrimidin-4,7(3H,8H)-dione], the minimal inhibitory concentration (MIC) under setting [1] was 2 µg/mL (≈ 6.07 µM). On the same count and under the same terms, in the case of `CCCSc1nc2c(c(=O)[nH]1)C(c1ccc(C(F)(F)F)cc1)CC(=O)N2` (stereo not shown) [LSL-9-38, 2-propylmercapto-5-(4-trifluoromethylphenyl)-5,6-dihydropyrido[2,3-d]pyrimidin-4,7(3H,8H)-dione] it was 16 µg/mL (≈ 41.7 µM).

Take `CCCSc1nc2c(c(=O)[nH]1)C(c1ccc(OCC)cc1)CC(=O)N2` (stereo not shown) [LSL-9-39, 2-propylmercapto-5-(4-ethoxyphenyl)-5,6-dihydropyrido[2,3-d]pyrimidin-4,7(3H,8H)-dione]: the “anti-mycobacterium tuberculosis MIC compared with the positive control drug INH” value is “equivalent to that of the positive control drug INH”. Also, under setting [1], the MIC amounted to 0.5 µg/mL (≈ 1.39 µM). As for `CCCSc1nc2c(c(=O)[nH]1)C(c1ccc(OC)c([N+](=O)[O-])c1)CC(=O)N2` (stereo not shown) [LSL-9-40, 2-propylmercapto-5-(4-methoxy-3-nitrophenyl)-5,6-dihydropyrido[2,3-d]pyrimidin-4,7(3H,8H)-dione], the MIC under setting [1] stood at 4 µg/mL (≈ 10.2 µM).

On to `CCCSc1nc2c(c(=O)[nH]1)C(c1ccc(OC)cc1[N+](=O)[O-])CC(=O)N2` (stereo not shown) [LSL-9-41, 2-propylmercapto-5-(4-methoxy-2-nitrophenyl)-5,6-dihydropyrido[2,3-d]pyrimidin-4,7(3H,8H)-dione], for which the “anti-mycobacterium tuberculosis MIC compared with the positive control drug INH” value is on record as “equivalent to that of the positive control drug INH”. Besides, the MIC under setting [1] was 0.125 µg/mL (≈ 0.32 µM). Regarding `CCCSc1nc2c(c(=O)[nH]1)C(c1ccc(Cl)c(N)c1)CC(=O)N2` (stereo not shown) [LSL-9-43, 2-propylmercapto-5-(3-amino-4-chlorophenyl)-5,6-dihydropyrido[2,3-d]pyrimidin-4,7(3H,8H)-dione], under setting [1], the MIC came to 4 µg/mL (≈ 11 µM). On the same count and under the same terms, in the case of `CCCSc1nc2c(c(=O)[nH]1)C(c1ccc(N)cc1)CC(=O)N2` (stereo not shown) [LSL-9-44, 2-propylmercapto-5-(4-aminophenyl)-5,6-dihydropyrido[2,3-d]pyrimidin-4,7(3H,8H)-dione] it was 16 µg/mL (≈ 48.4 µM); in that of `CCCSc1nc2c(c(=O)[nH]1)C(c1cccc(OC)c1)CC(=O)N2` (stereo not shown) [LSL-9-47, 2-propylmercapto-5-(3-methoxyphenyl)-5,6-dihydropyrido[2,3-d]pyrimidin-4,7(3H,8H)-dione], 4 µg/mL (≈ 11.6 µM).
